Series [1] in a line: Cytotoxicity against mouse BV2 cells assessed as cell viability at 20 uM by MTT assay. The format is cell-based, BV-2. Particulars: read-out: Activity. Background: Tetrazolium dyes change colour on reduction, which living cells bring about.
Series [2] concerns BV-2. Briefly: Anti-neuroinflammatory activity in mouse BV2 cells assessed as inhibition of LPS-induced nitric oxide production […] by Griess assay relative to control. The format is functional, cell-based. In general terms: Nitrite, measured by Griess reagent, commonly stands in for NO production.
A short description of series [3]: Reduction of SNP-induced nitrite accumulation at 1 to 10 uM after 180 mins by Griess assay.
Series [4] has as its system RAW264.7. As to the kind of experiment: Anti-neuroinflammatory activity in mouse RAW264.7 cells assessed as inhibition of LPS-induced nitric oxide production. The format is functional, cell-based.
For series [5], the system named is BV-2. As to the kind of experiment: Downregulation of iNOS expression in LPS-treated mouse BV2 cells at 1 to 10 uM incubated for 30 mins prior to LPS challenge measured after 6 hrs by Western blot analysis. The format is functional, cell-based. A general note: A western blot detects proteins with antibodies after separation by electrophoresis.
Series [6] deals with T1, Nitric oxide synthase, inducible (Mus musculus) (UniProt P29477).
T1 sequence (whole entry): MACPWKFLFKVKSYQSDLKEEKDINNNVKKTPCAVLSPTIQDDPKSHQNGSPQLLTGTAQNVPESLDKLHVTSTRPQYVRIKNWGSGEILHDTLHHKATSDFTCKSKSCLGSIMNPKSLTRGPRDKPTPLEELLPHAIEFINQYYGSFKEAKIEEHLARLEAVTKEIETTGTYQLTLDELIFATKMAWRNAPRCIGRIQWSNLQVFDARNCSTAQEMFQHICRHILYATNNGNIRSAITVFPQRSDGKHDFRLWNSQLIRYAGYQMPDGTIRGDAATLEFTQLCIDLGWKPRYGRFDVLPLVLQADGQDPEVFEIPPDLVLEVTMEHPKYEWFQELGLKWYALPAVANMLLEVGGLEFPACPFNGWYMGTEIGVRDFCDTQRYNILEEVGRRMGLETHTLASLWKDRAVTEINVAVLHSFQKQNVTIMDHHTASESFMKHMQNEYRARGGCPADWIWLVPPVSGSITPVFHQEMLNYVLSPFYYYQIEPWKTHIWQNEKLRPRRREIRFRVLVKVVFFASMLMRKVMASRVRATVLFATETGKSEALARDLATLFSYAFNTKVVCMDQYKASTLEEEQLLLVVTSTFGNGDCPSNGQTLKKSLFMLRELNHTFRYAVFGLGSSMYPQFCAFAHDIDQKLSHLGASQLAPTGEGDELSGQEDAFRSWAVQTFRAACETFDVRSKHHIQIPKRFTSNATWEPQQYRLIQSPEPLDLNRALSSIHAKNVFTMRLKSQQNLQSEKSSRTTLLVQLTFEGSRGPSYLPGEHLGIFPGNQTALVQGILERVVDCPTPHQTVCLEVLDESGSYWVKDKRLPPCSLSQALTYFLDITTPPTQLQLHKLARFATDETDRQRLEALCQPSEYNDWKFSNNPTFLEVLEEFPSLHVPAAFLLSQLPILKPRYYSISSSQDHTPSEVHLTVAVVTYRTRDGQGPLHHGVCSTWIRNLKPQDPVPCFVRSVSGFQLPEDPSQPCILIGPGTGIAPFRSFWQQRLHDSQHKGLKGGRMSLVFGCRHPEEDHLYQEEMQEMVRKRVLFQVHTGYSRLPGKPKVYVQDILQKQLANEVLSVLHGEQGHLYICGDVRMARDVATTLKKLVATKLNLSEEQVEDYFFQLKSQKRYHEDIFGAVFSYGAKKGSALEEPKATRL
Briefly: Inhibition of iNOS in LPS-treated mouse BV2 cells assessed as decrease in nitrite level at 1 to 5 uM after 12 hrs by Griess assay. The format is cell-based. The following applies: BV-2.

The test system of series [7] is RAW264.7. As to the kind of experiment: Cytotoxicity against mouse RAW264.7 cells assessed as decrease in cell viability at 20 uM. It counts as cell-based. The following applies: raw264.7, 20 µM.
Series [8] can be described thus: Reduction of SNP-induced nitrite accumulation at 5 to 10 uM after 180 mins by Griess assay.
The subject of series [9] is BV-2. As to the kind of experiment: Downregulation of iNOS expression in LPS-treated mouse BV2 cells at 10 uM incubated for 30 mins prior to LPS challenge measured after 6 hrs by Western blot analysis. The format is functional, cell-based.
The target of series [10] is T1, Nitric oxide synthase, inducible (Mus musculus). As to the kind of experiment: Inhibition of iNOS in LPS-treated mouse BV2 cells assessed as decrease in nitrite level at 1 to 10 uM after 12 hrs by Griess assay. The format is cell-based. Particulars: BV-2.

Calls of active or inactive are those of the source. The rule behind the calls is not given here.

The term IC50 denotes the concentration at which inhibition is half-maximal. Consider `CO[C@@H](CC(=O)O[C@@]1(C(=O)O)C[C@@H](O)[C@@H](O)[C@H](OC(=O)/C=C/c2ccc(O)c(O)c2)C1)c1ccc(O)c(O)c1`, for which, in series [1], the viability at 20 µM came out at 90.9%. The IC50 in series [2] amounted to 12.5 µM.
`CNC(=N)NCCC[C@H](N)C(=O)O` [TILARGININE]: the viability at 20 µM in series [1] was found to be 103%.
As for `COC(=O)[C@]1(O)C[C@@H](O)[C@@H](O)[C@H](OC(=O)/C=C\c2ccc(O)cc2)C1`, the viability at 20 µM in [1] was found to be 109%. Moreover, the IC50 in [2] worked out at 86.4 µM.
The like results for `COC(=O)[C@]1(O)C[C@@H](O)[C@@H](O)[C@H](OC(=O)/C=C\c2ccc(O)c(O)c2)C1` were, in that order, 90.6% and 17 µM.
Regarding `COC(=O)[C@]1(O)C[C@@H](O)[C@@H](O)[C@H](OC(=O)/C=C/c2ccc(O)c(O)c2)C1` [CHLOROGENIC ACID METHYL ESTER], the viability at 20 µM in series [1] is 95.3%. Moreover, the IC50 in series [2] was 12.1 µM.
The like results for `O=C(/C=C/c1ccc(O)cc1)O[C@@H]1C[C@](OC(=O)/C=C/c2ccc(O)c(O)c2)(C(=O)O)C[C@@H](O)[C@H]1O` were, in that order, 94.3% and 23.5 µM.
For `O=C(/C=C/c1ccc(O)c(O)c1)O[C@@H]1C[C@](OC(=O)/C=C/c2ccc(O)c(O)c2)(C(=O)O)C[C@@H](O)[C@H]1O` [1,5-O-TRANS-DICAFFEOYLQUINIC ACID], the viability at 20 µM in series [1] stood at 93.7%. For the same compound, the IC50 in [2] was 22.6 µM.
With `COC(=O)[C@]1(O)C[C@@H](O)[C@@H](O)[C@H](OC(=O)/C=C/c2ccc(O)cc2)C1`, the viability at 20 µM in [1] stood at 109%. In addition, the IC50 in series [2] was 82 µM.
Turning to `COC(=O)[C@]1(O)C[C@@H](O)[C@@H](OC(=O)/C=C/c2ccc(O)c(O)c2)[C@H](OC(=O)/C=C/c2ccc(O)c(O)c2)C1`, in [1], the viability at 20 µM worked out at 92.2%. Further, the IC50 in [2] was 24.6 µM.
The like results for `COC(=O)[C@]1(O)C[C@@H](O)[C@@H](OC(=O)/C=C/c2ccc(O)c(O)c2)[C@H](O)C1` were, in that order, 92.6% and 16.6 µM.
The corresponding values for `COC(=O)[C@@]1(O)C[C@@H](O)[C@H](OC(=O)/C=C/c2ccc(O)c(O)c2)[C@H](OC(=O)/C=C/c2ccc(O)c(O)c2)C1` [3,4-O-TRANS-CAFFEOYLQUINIC ACID METHYL ESTER] are 96.8% and 20.2 µM.
The like results for `O=C(/C=C\c1ccc(O)cc1)O[C@@H]1C[C@](OC(=O)/C=C\c2ccc(O)cc2)(C(=O)O)C[C@@H](O)[C@H]1O` were, in that order, 96% and 52.8 µM.
Regarding `O=C(/C=C\c1ccc(O)cc1)O[C@@H]1C[C@](OC(=O)/C=C/c2ccc(O)cc2)(C(=O)O)C[C@@H](O)[C@H]1O`, the viability at 20 µM in [1] is 98.1%. The IC50 in series [2] amounted to 59.8 µM.
In the case of `COC(=O)[C@]1(O)C[C@@H](OC(=O)/C=C/c2ccc(O)c(O)c2)[C@@H](O)[C@H](OC(=O)/C=C/c2ccc(O)c(O)c2)C1`, the outcome in [3] was Active. For the same compound, the IC50 in series [4] is 42.9 µM; in series [2] it was 9.04 µM. For the same compound, the viability at 20 µM in series [1] turned out to be 91.1%. Further, the result in series [5] was inactive. Further, the inhibition entry in series [6] was “Active”. Besides, the Activity entry in [7] is “Non-toxic”.
Take `COC(=O)[C@]1(O)C[C@@H](O)[C@@H](OC(=O)/C=C/c2ccc(O)cc2)[C@H](O)C1`: the viability at 20 µM in series [1] is 108%. In addition, the IC50 in series [2] was determined as 45 µM.
Take `CO[C@@H](CC(=O)O[C@@H]1C[C@](OC(=O)/C=C/c2ccc(O)c(O)c2)(C(=O)O)C[C@@H](O)[C@H]1O)c1ccc(O)c(O)c1`: the outcome in series [8] and in series [9] was Active. The IC50 is 175 µM in series [4] and 4.66 µM in series [2]. The viability at 20 µM in [1] came to 93.2%. For the same compound, the inhibition result in [10] was “Active”. Moreover, the Activity entry in series [7] was “Non-toxic”.

Values taken from ChEMBL document CHEMBL2346545, “Quinic acid derivatives from Pimpinella brachycarpa exert anti-neuroinflammatory activity in lipopolysaccharide-induced microglia” (Bioorg Med Chem Lett, 2013).
